Assay [1] concerns spontaneously hypertensive rats. In words: antihypertensive activity: blood pressure after oral administration to conscious spontaneously hypertensive rats. Format: in vivo. Particulars: male spontaneously hypertensive rats. How it is done:
The animals used in this test were 15 week old male spontaneously hypertensive rats. 3-5 rats were used to test each concentration of each compound. Each animal was treated as follows. […] A polyethylene cannula was then inserted into the abdominal aorta by the method of Weeks and Jones [J. R. Weeks and J. A. Jones, Proc. Soc. […] The other end of the cannula, leading out of the body, was fixed to the neck. One week after the operation, when the animal had recovered from post-operative invasion, this end of the cannula was connected to an apparatus to measure the blood pressure and heart beat directly without the need for any further anesthesia or restraint. The haemomanometer used was an improved type of that originated by Laffan et al. [P. J. Laffan, A. Peterson, S. W. Hitch and C.
The compound under test was suspended at the desired concentration in a 0.3% w/v aqueous solution of carboxymethylcellulose and administered orally in a volume of 2 ml/kg body weight. […] After administration of the sample, the blood pressure and heart beat of each animal were measured for 24 hours at 15 minute intervals.
For purposes of comparison, the same experiment was carried out with various concentrations of the known hypotensive agent, prazosin, in the form of its hydrochloride.
Δmax =Maximum change in blood pressure (mm/Hg) after administration of the compound under test;
Tmax =Time (in hours) after administration of the compound under test required for the blood pressure to obtain a maximum change;
T0.5 max =Time (in hours) after administration of the compound under test for the blood pressure to return to one-half of its maximum value.

The conditions of assay [2]: background; cited from earlier work.

The source of these data is US4426382A, “4-Amino-6,7-dimethoxy-2-piperazinylquinazoline derivatives, their preparation and use” (Sankyo Company Limited, priority 1980, dated 1984).

SMILES strings stand for the structures. Structures can show the parent of a compound that is named as a salt.

On to `CC=C(C)C(=O)N1CCN(c2nc(N)c3cc(OC)c(OC)cc3n2)CC1` [Compound No. 3, 4-Amino-2-[4-(2,3-dimethylacryloyl)-1-piperazinyl]-6,7-dimethoxyquinazoline], for which, in assay [1] (dose 30 mg/kg oral), the “T0.5 max, time after administration for the blood pressure to return to one-half of its maximum value” (shortened to “T0.5 max, time after administration”) was 2 h; the “Tmax, time after administration required for the blood pressure to obtain a maximum change” value (from here on “Tmax, time … to obtain a maximum change”) was 30 min; the “Δmax, maximum change in blood pressure after administration” value (from here on “Δmax, maximum change in blood pressure”) is -30 mmHg.

In the case of `COc1cc2nc(N3CCN(C(=O)C=C(C)C)CC3)nc(N)c2cc1OC` [Compound No. 4, 4-Amino-2-[4-(3,3-dimethylacryloyl)-1-piperazinyl]-6,7-dimethoxyquinazoline], in assay [1] (dose 30 mg/kg oral), the “T0.5 max, time after administration” value was found to be 3 h; the “Tmax, time … to obtain a maximum change” value worked out at 30 min; the “Δmax, maximum change in blood pressure” value was -30 mmHg.

Consider `CCC=CC(=O)N1CCN(c2nc(N)c3cc(OC)c(OC)cc3n2)CC1` [Compound No. 5, 4-Amino-6,7-dimethoxy-2-[4-(2-pentenoyl)-1-piperazinyl]quinazoline], for which, in assay [1] (dose 3 mg/kg oral), the “Tmax, time … to obtain a maximum change” value stood at 30 min and the “Δmax, maximum change in blood pressure” value is recorded as -40 mmHg. In addition, the “T0.5 max, time after administration” value in assay [1] (dose 3 mg/kg oral, 3 mg/kg) came out at 9 h. In assay [1] (dose 30 mg/kg oral, 30 mg/kg), the “T0.5 max, time after administration” value is 11.5 h; the “Tmax, time … to obtain a maximum change” value was determined as 30 min; the “Δmax, maximum change in blood pressure” value is given as -50 mmHg.

On to `C=CCCC(=O)N1CCN(c2nc(N)c3cc(OC)c(OC)cc3n2)CC1` [Compound No. 6, 4-Amino-6,7-dimethoxy-2-[4-(4-pentenoyl)-1-piperazinyl]quinazoline], for which, in assay [1] (dose 3 mg/kg oral), the “T0.5 max, time after administration” value was determined as 8 h; the “Tmax, time … to obtain a maximum change” value came out at 30 min; the “Δmax, maximum change in blood pressure” value is recorded as -40 mmHg. Further, in assay [1] (dose 30 mg/kg oral), the “T0.5 max, time after administration” value was determined as 13 h; the “Tmax, time … to obtain a maximum change” value was 30 min; the “Δmax, maximum change in blood pressure” value is -65 mmHg.

`CCC=CCC(=O)N1CCN(c2nc(N)c3cc(OC)c(OC)cc3n2)CC1` [Compound No. 7, 4-Amino-2-[4-(3-hexenoyl)-1-piperazinyl]-6,7-dimethoxyquinazoline]: in assay [1] (dose 3 mg/kg oral), the “T0.5 max, time after administration” value worked out at 7 h; the “Tmax, time … to obtain a maximum change” value was 30 min; the “Δmax, maximum change in blood pressure” value is on record as -20 mmHg. Also, in assay [1] (dose 30 mg/kg oral), the “T0.5 max, time after administration” value worked out at 15 h; the “Tmax, time … to obtain a maximum change” value was found to be 30 min; the “Δmax, maximum change in blood pressure” value was -25 mmHg.

In the case of `CCCC=CC(=O)N1CCN(c2nc(N)c3cc(OC)c(OC)cc3n2)CC1` [Compound No. 8, 4-Amino-2-[4-(2-hexenoyl)-1-piperazinyl]-6,7-dimethoxyquinazoline], in assay [1] (dose 3 mg/kg oral), the “T0.5 max, time after administration” value was 4.5 h; the “Tmax, time … to obtain a maximum change” value is 30 min; the “Δmax, maximum change in blood pressure” value is on record as -35 mmHg. Besides, in assay [1] (dose 30 mg/kg oral), the “T0.5 max, time after administration” value is 7 h; the “Tmax, time … to obtain a maximum change” value came to 30 min; the “Δmax, maximum change in blood pressure” value is given as -40 mmHg.

In the case of `COc1cc2nc(N3CCN(C(=O)c4ccco4)CC3)nc(N)c2cc1OC` [prazosin hydrochloride, prazosin, reference compound], in assay [1] (dose 3 mg/kg oral), the “Tmax, time … to obtain a maximum change” value worked out at 30 min and the “Δmax, maximum change in blood pressure” value is given as -35 mmHg. Further, in assay [1] (dose 30 mg/kg oral), the “Tmax, time … to obtain a maximum change” value is 60 min and the “Δmax, maximum change in blood pressure” value is recorded as -50 mmHg.

As to `COc1cc2nc(N3CCN(C(=O)c4ccco4)CC3)nc(N)c2cc1OC` [prazosin], in assay [2], the “antihypertensive activity (in words)” value was “very useful antihypertensive activity”, the “disappearance of hypotensive effect (in words)” value was “the effect tends also to diappear quickly” and the “time to maximum hypotensive effect (in words)” value is listed as “maximum hypotensive effect tends to be achieved very quickly”.
